The values below come from paper PMC11675717, “Evolutionary Adaptations in Biliverdin Reductase B: Insights into Coenzyme Dynamics and Catalytic Efficiency” (International Journal of Molecular Sciences, 2024).

Residue numbers refer to the chain shown, from its start. Like-named read-outs stand apart in the source and are kept apart here.

Test [1] concerns the target T1, human BLVRB (Homo sapiens, UniProt P30043, T164S).
T1 construct: pET21
T1 sequence (P30043 2-206 T164S): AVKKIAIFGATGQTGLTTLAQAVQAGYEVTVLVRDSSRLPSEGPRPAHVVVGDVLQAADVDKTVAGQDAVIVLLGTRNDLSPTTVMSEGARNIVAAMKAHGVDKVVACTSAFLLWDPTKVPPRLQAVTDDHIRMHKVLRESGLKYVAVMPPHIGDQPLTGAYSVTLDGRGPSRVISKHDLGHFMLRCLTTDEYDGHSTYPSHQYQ
Put plainly: isothermal titration calorimetry. Format: binding. From the text:
(§1) isothermal titration calorimetry on human BLVRB

For test [2], the target named is T2, human BLVRB (Homo sapiens, UniProt P30043).
T2 construct: pET21
T2 sequence (P30043 2-206): T1 sequence (P30043 2-206 T164S) with S163T
Put plainly: isothermal titration calorimetry. The format is binding.
Description: as §1
In general terms: ITC needs no label: the signal is the heat of the interaction.

In test [3] the target is T2, human BLVRB. The experiment in a line: NMR titration ([…]-HSQC). Format: binding.
Another test has as its target T3, hyrax BLVRB.
T3 construct: pET21
The experiment in a line: NMR titration ([…]-HSQC). Particulars: holo form, bis-tris pH 6.5, 20 °C, 900 MHz. On the set-up: species or system Procavia capensis.

Another test concerns the target T4, Aedes aegypti BLVRB (Aedes aegypti, UniProt Q16FC8).
T4 construct: gene 5565330
T4 sequence (Q16FC8 1-205): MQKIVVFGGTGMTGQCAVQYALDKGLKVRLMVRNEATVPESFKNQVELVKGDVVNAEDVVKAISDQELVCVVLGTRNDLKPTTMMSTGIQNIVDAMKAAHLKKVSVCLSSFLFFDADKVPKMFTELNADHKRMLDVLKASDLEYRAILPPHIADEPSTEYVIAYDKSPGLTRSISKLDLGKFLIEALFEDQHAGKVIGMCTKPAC
The experiment in a line: NMR spectra ([…]-HSQC) apo versus NADP+. Format: binding. Particulars: complex unstable over hours at room temperature.

Test [4] deals with T2, human BLVRB. The experiment in a line: NMR titration ([…]-HSQC). Conditions: bis-tris pH 6.5; weak binding.

Turning to `NC(=O)C1=CN([C@@H]2O[C@H](COP(=O)(O)OP(=O)(O)OC[C@H]3O[C@@H](n4cnc5c(N)ncnc54)[C@H](OP(=O)(O)O)[C@@H]3O)[C@@H](O)[C@H]2O)C=CC1` [NADPH], the Kd on human BLVRB [1] (read-out: Kd (nM) with NADPH) turned out to be 110 ± 10 nM; at human BLVRB [2] (read-out: Kd (nM) with NADPH), 130 ± 10 nM.
Consider `C=CC1=C(C)/C(=C/c2[nH]c(Cc3[nH]c(/C=C4\NC(=O)C(C)=C4CCC(=O)O)c(CCC(=O)O)c3C)c(C)c2C=C)NC1=O` (mixture of isomers) [bilirubin-β], for which the Kd at human BLVRB [3] (read-out: binding affinity) worked out at 26.8 ± 9.1 µM; on hyrax BLVRB (NADP+ 1 mM, read-out: binding affinity), 19.5 ± 7.4 µM.
With `NC(=O)c1ccc[n+]([C@@H]2O[C@H](COP(=O)(O)OP(=O)(O)OC[C@H]3O[C@@H](n4cnc5c(N)ncnc54)[C@H](OP(=O)(O)O)[C@@H]3O)[C@@H](O)[C@H]2O)c1` [NADP^+], the Kd turned out to be 130 ± 10 nM on human BLVRB [1] (read-out: Kd (nM) with NADP^+) and 190 ± 5 nM at human BLVRB [2] (read-out: Kd (nM) with NADP^+). Further, the “NMR spectra (15N-HSQC) apo versus NADP+” value at Aedes aegypti BLVRB is reported as “gave rise to good dispersion upon NADP^+ binding”.
In the case of `Cc1cc2nc3c(=O)[nH]c(=O)nc-3n(C[C@H](O)[C@H](O)[C@H](O)COP(=O)(O)OP(=O)(O)OC[C@H]3O[C@@H](n4cnc5c(N)ncnc54)[C@H](O)[C@@H]3O)c2cc1C` [FAD], the Kd worked out at 283 ± 13.5 µM on human BLVRB [3] (read-out: Kd) and 496 ± 22.6 µM at hyrax BLVRB (read-out: Kd).
With `C=CC1=C(C)/C(=C/c2[nH]c(Cc3[nH]c(/C=C4\NC(=O)C(C)=C4C=C)c(C)c3CCC(=O)O)c(CCC(=O)O)c2C)NC1=O` [BR-α], the binding affinity result on human BLVRB [4] was “a titration of human BLVRB with BR-α revealed an expected weak binding affinity”.
